Here are results for two compounds from patent publication US20240124458A1, “POLYMORPHS OF AVAPRITINIB AND METHODS FOR PREPARING THE POLYMORPHS” (Macfarlan Smith Limted, priority 2020, published 2024).

This series in a line: Gravimetric vapour sorption (GVS) isotherm, with XRPD after analysis. The format is physicochemical. The following applies: for water uptake (GVS isotherm plot): 25° C./90% RH; for XRPD after GVS analysis (change in form): after GVS cycles, 0-90% RH at 25° C. Here is the method:
XRPD diffractograms were collected on a Bruker D8 diffractometer using Cu Kα radiation (40 kV, 40 mA) and a θ-2θ goniometer fitted with a Ge monochromator. The incident beam passes through a 2.0 mm divergence slit followed by a 0.2 mm anti-scatter slit and knife edge. The diffracted beam passes through an 8.0 mm receiving slit with 2.5° Soller slits followed by the Lynxeye Detector. The software used for data collection and analysis was Diffrac Plus XRD Commander and Diffrac Plus EVA respectively.
Hygroscopicity of a solid material may be determined by means of gravimetric vapour sorption (GVS) analysis, sometimes known by dynamic vapour sorption (DVS) analysis.
The experiment subjects a sample material which is held in a fine wire basket on a microbalance within a temperature and humidity controlled environment (chamber). Using the software, the collected data can then be processed to determine the isotherm points at the increment ranges specified during the experiment and show the overall water uptake of the material.
Sorption isotherms were obtained using a SMS DVS Intrinsic moisture sorption analyser, controlled by DVS Intrinsic Control software. The sample temperature was maintained at 25° C. by the instrument controls. The humidity was controlled by mixing streams of dry and wet nitrogen, with a total flow rate of 200 ml/min. The relative humidity was measured by a calibrated Rotronic probe (dynamic range of 1.0-100% RH), located near the sample. The weight change, (mass relaxation) of the sample as a function of %RH was constantly monitored by a microbalance (accuracy ±0.005 mg).
Typically, 5-30 mg of sample was placed in a tared mesh stainless steel basket under ambient conditions. The sample was loaded and unloaded at 40% RH and 25° C. (typical room conditions). A moisture sorption isotherm was performed as outlined below (2 scans per complete cycle). The standard isotherm was performed at 25° C. at 10% RH intervals over a 0-90% RH range. Typically, a double cycle (4 scans) was carried out. Data analysis was carried out within Microsoft Excel using the DVS Analysis Suite.

On to `Cn1cc(-c2cc3c(N4CCN(c5ncc([C@@](C)(N)c6ccc(F)cc6)cn5)CC4)ncnn3c2)cn1` [avapritinib anhydrate, (1S)-1-(4-fluorophenyl)-1-[2-[4-[6-(1-methylpyrazol-4-yl)pyrrolo[2,1-f][1,2,4]triazin-4-yl]piperazin-1-yl]pyrimidin-5-yl]ethanamine], for which the “water uptake (GVS isotherm plot)” value is listed as “about 0.1 % w/w” and the “XRPD after GVS analysis (change in form)” value is reported as “unchanged”.
The corresponding values for `Cn1cc(-c2cc3c(N4CCN(c5ncc([C@@](C)(N)c6ccc(F)cc6)cn5)CC4)ncnn3c2)cn1` [avapritinib hydrate, (1S)-1-(4-fluorophenyl)-1-[2-[4-[6-(1-methylpyrazol-4-yl)pyrrolo[2,1-f][1,2,4]triazin-4-yl]piperazin-1-yl]pyrimidin-5-yl]ethanamine] are “about 4.0 % w/w” and “unchanged”.
